Tests used:
NIH-3T3 cells = assay: CAT transient transfection; type: cell-based, mouse; details: for CAT ACTIVITY: 2 μg pSV2CAT, 6 h OPTI MEM serum-free; for DNA transfection (in words): NIH-3T3
Protocol: (§1) A one-to-one mixture (by weight) of the desired lipid and dioleylphosphatidyl ethanolamine was prepared in CHCl3. The CHCl3 was removed on the rotary evaporator to obtain a thin film of lipid mixture. The mixture was hydrated with enough water to obtain approximately 1.25 mg of lipid per ml of solution. The solution was passed through a microfluidizer twice and diluted to 1 mg/ml. The liposome formulation was then filtered through a 0.2 μ filter. Compound 8 was also formulated without DOPE either by sonication at 1 mg/ml in water or by dissolving a dried lipid film with ethanol and then adding water to give a final concentration of 2.5 mg/ml. Ethanol was 10% of that volume. In some instances, this was further diluted with water to 1 mg/ml, 4% ethanol.
(§2) Baby hamster kidney (BHK-21) , COS-7, HeLa-S3 cells, and normal human fibroblasts isolated from newborn foreskin dermis were grown in Dulbecco's-modified Eagle's medium (DMEM) containing 10% fetal bovine serum (FBS), 2 mM L-glutamine (gln), 0.1 mM MEM nonessential amino acids (NEAA), 100 U/ml penicillin, and 100 μg/ml streptomycin. NIH-3T3 cells were grown in DMEM containing 10% calf serum (CS), 2 mMgln, 0.1 mM NEAA 100 U/ml penicillin, and 100 μg/ml streptomycin. PC12 cells were grown in DMEMcontaining 10% horse serum, 5% FBS, 2 mM gln, 0 1 mMNEAA, 100 U/ml penicillin and 100 μ/ml streptomycin. Jurkat cells (human lymphoid cell line) were grown in RPMI-1640 supplemented with 10% FBS, 2mML-glutamine, 100 U/ml penicillin, and 100 μg/ml streptomycin. Human keratinocytes were isolated from newborn foreskin epidermis and cultured in Keratinocyte Growth Medium (Clonetics, San Diego, Ca.). All cell lines were maintained in a humidified incubator with a 5% CO2 atmosphere at 37° C.
(§3) pSV2CAT (5.0 Kb) was described previously (Gorman, C. M. et al. (1982) Mol. Cell. Biol. 2:1044). pCMVCAT (5.0 Kb) was also described previously (Foecking M. K. and Hofstetter, H. (1986) Gene 45:101). Plasmid DNA was purified by isopycnic centrifugation in CsCl/EtBr gradients after recovery by alkaline lysis (Maniatis, T. et al. (1982) in Molecular Cloning: A Laboratory Manual, Cold Spring Harbor Laboratory, Cold Spring Harbor, N.Y., pp. 90-91).
(§4) For transient transfection of pSV2CAT DNA or pCMVCAT DNA, cells were plated in 6-well tissue culture dishes (35 mm wells) and incubated overnight to approximately 60% confluency. To transfect cells in one well, 1-2 μg of pSV2CAT DNA or pCMVCAT DNA was diluted in 100 μl Opti-MEM I. Cationic lipids were diluted separately in another 100 μl aliquot of Opti-MEM I. The two solutions were then mixed in a polystyrene tube, incubated for 10-15 min at room temperature to allow the formation of a DNA-liposome complex, and diluted to one ml by adding 0.8 ml Opti-MEM I or DMEM containing 5% fetal bovine serum (FBS), 2 mMgln, 0.1 mMNEAA, and lacking antibiotics. The cells were washed once with Opti-MEM I or serum-free DMEM, and the DNA-liposome complex was added directly to the cells. After a six hr incubation at 37° C., the transfection complexes were removed and two ml of DMEM containing 10% FBS, 2 mMgln, 0.2 mMNEAA, 100 U/ml penicillin, and 100 μg/ml streptomycin, was added to each well. Note: human keratinocytes were cultured and transfected in Keratinocyte Growth Medium. Cells were incubated for an additional 48 hrs and lysed in situ by freeze-thawing once or twice in 300 μl 0.1M Tris-HC1, pH 7.8-8.0 containing 0 1% Triton X-100. Cell lysates were assayed for CAT activity.
(§5) Cell lysates were assayed for CAT activity as described by Neumann et al. (1987) BioTechniques 5:444 using [^14 C]-butyryl coenzyme A (New England Nuclear, Boston, Mass.). The enzyme reactions were incubated for 2 hrs at 37° C., overlayed with 3.0 ml Econofluor (New England Nuclear) and then incubated for an additional 2 hrs to allow diffusion of the acetylated chloramphenicol into the scintillation fluid. CAT activity was determined by measuring radioactivity in a liquid scintillation counter. […]

Jurkat cells = assay: CAT transient transfection; type: cell-based, human; details: pSV2CAT, 6 h OPTIMEM
Protocol: as §1, §2, §3
(§6) For transient nuclear expression of pSV2CAT or pCMVCAT in Jurkat cells, cells were washed with Opti-MEM I or serum-free RPMI 1640 containing 2 mM gln and plated in six-well plates at a density of 3×10^6 cells per well in 0.8 ml Opti-MEM I or RPMI 1640. For each transfection, 5 μg pSV2CAT DNA or 2 μg pCMVCAT DNA was diluted in 100 μl Opti-MEM I. Lipids were diluted separately in another 100 μl aliquot of Opti-MEMI. The two solutions were then mixed in a polystyrene tube and incubated for 10-15 min at room temperature. The DNA-liposome complex was added to the cell suspensions and incubated 6 hours at 37° C., after which 4 ml growth medium were added per well (RPMI-1640; 10% FBS). Phorbol myristate acetate (Sigma Chemical Co., St. Louis, Mo.) and phytohemagglutinin (Sigma) were also added to a final concentration of 50 ng/ml and 1 μg/ml, respectively, to activate the cells. Cells were harvested at approximately 48 hours post-transfection by centrifugation. Cell lysates were prepared by resuspending cell pellets at 0° C. in 0.1 M Tris-HC1 pH 8.0 containing 0.1% Triton X-100 and freeze-thawing once. Cell lysates were cleared by centrifugation and assayed for CAT activity.
as §5

[1] = % protein (toxicity estimate, Bradford) after transfection; type: cell-based, human; details: human, jurkat cells, pSV2CAT, 6 h OPTIMEM
Protocol: as §1, §2, §6
The "% protein" column indicates the relative amount of protein in the sample tested for CAT activity and therefore provides a way to estimate toxicity of the compounds being tested. The "CAT Activity" column indicates the relative transfection effectiveness of the lipid formulation in the various cell lines. The control sample was a cell culture grown under similar conditions as those that were transfected, but with no DNA or cationic lipid added. Protein was measured using a commercially available Bradford protein assay (BioRad Laboratories, Richmond, Ca.).
Jurkat cells (3 × 10^6 cells) were transfected in OPTIMEM with
μg of pSV2CAT DNA for 6 hours.
DNA-lipid complexes were made in OPTIMEM. Jurkat cells (3 × 10^
cells) were transfected in RPMI1640 with 2 μg of pCMVCAT DNA for 6

[2] = as above; type: cell-based, human; details: human, keratinocytes, 2 μg pSV2CAT, 6 h
Protocol: as §1
as §2, with “C. […]” for “C.”
(§7) The "% protein" column indicates the relative amount of protein in the sample tested for CAT activity and therefore provides a way to estimate toxicity of the compounds being tested. […] Protein was measured using a commercially available Bradford protein assay (BioRad Laboratories, Richmond, Ca.). […]

[3] = test system: normal human keratinocytes; assay: CAT transient transfection; type: cell-based; details: for CAT ACTIVITY: 2 μg pSV2CAT, 6 h, 50 μl of 300 μl assayed; for DNA transfection (in words): keratinocytes
Protocol: as §1, §2, §3, §4, §5

some cell lines [4] = details: cited from earlier work
some cell lines [5] = details: cited from earlier work; for transfection / delivery of nucleic acids: lipid aggregates or liposomes; for transfection efficiency relative to DOTMA: some cell lines
[6] = % protein (toxicity estimate, Bradford) after transfection; type: cell-based, mouse; details: mouse, nih-3t3 cells; 16 μg lipid; 2 μg pSV2CAT; 6 h OPTI MEM serum-free
Protocol: as §1
(§8) Baby hamster kidney (BHK-21) , COS-7, HeLa-S3 cells, and normal human fibroblasts isolated from newborn foreskin dermis were grown in Dulbecco's-modified Eagle's medium (DMEM) containing 10% fetal bovine serum (FBS), 2 mM L-glutamine (gln), 0.1 mM MEM nonessential amino acids (NEAA), 100 U/ml penicillin, and 100 μg/ml streptomycin. […]
as §7

[7] = as above; type: cell-based; details: human, hela-s3 cells, 2 μg pSV2CAT
Protocol: as §1, §8, §7

HeLa-S3 cells = assay: CAT transient transfection; type: cell-based; details: for CAT ACTIVITY: 2 μg pSV2CAT, 6 h
Protocol: as §1, §2, §3, §4, §5

Question: For `CCCCCCCC/C=C\CCCCCCCCOCC(C[N+](C)(C)CCNCCCN)OCCCCCCCC/C=C\CCCCCCCC` (stereo not drawn) [Compound 4, 1-Propanaminium, N-[2-[(3-aminopropyl)amino]ethyl]-N,N-dimethyl-2,3-bis(9-octadecenyloxy)-, bromide], which “CAT ACTIVITY” value (NIH-3T3 cells; 24 μg lipid) is on record?
Answer: 3,114 CPM

Question: What about the “CAT ACTIVITY” value (Jurkat cells; 20 μg lipid) of the same molecule?
Answer: 2252 CPM/150 μl

Question: What about the “CAT ACTIVITY” value (Jurkat cells; 30 μg lipid) of the same molecule?
Answer: 820 CPM/150 μl

Question: What about the viability at 6 h ([1]; 20 μg lipid) of the same molecule?
Answer: 93%

Question: What about the viability at 6 h ([1]; 30 μg lipid) of the same molecule?
Answer: 100%

Question: And the viability at 6 h ([2]; 40 μg lipid)?
Answer: 41%

Question: What about the “CAT ACTIVITY” value ([3]; 40 μg lipid) of the same molecule?
Answer: 20,038 CPM

Question: What about the “DNA transfection (in words)” value [3] of the same molecule?
Answer: effective

Question: What does the source list for `CCCCCCCCCCCCCCCCCCN(CCCCCCCCCCCCCCCCCC)C(=O)CNC(=O)C(CCCNCCCN)NCCCN` (stereo not drawn) [DOGS, 5-carboxyspermylglycine dioctadecylamide]?
Answer: toxicity relative to DOTMA (some cell lines [4]): less toxic; transfection / delivery of nucleic acids (some cell lines [5]): efficient transfection; transfection efficiency relative to DOTMA (some cell lines [5]): more efficient

Question: For `CCCCCCCC/C=C\CCCCCCCCOCC(C[N+](C)(C)CCBr)OCCCCCCCC/C=C\CCCCCCCC` (stereo not drawn) [Compound 3, 1-Propanaminium, N-[2-(2-bromo)ethyl]-N,N-dimethyl-2,3-bis(9-octadecenyloxy)-,bromide], which “CAT ACTIVITY” value (NIH-3T3 cells; 16 μg lipid) is on record?
Answer: 6,074 CPM

Question: What about the “DNA transfection (in words)” value (NIH-3T3 cells) of the same molecule?
Answer: good activity

Question: What about the viability at 6 h [6] of the same molecule?
Answer: 35%

Question: What about the “CAT ACTIVITY” value (Jurkat cells; 30 μg lipid) of the same molecule?
Answer: 3008 CPM/150 μl

Question: What about the viability at 6 h ([7]; 6 μg lipid, DMEM, 5% FBS) of the same molecule?
Answer: 54%

Question: And the viability at 6 h ([7]; 12 μg lipid, OPTIMEM I, 0% FBS)?
Answer: 43%

Question: What about the viability at 6 h ([1]; 30 μg lipid) of the same molecule?
Answer: 97%

Question: And the viability at 6 h ([2]; 10 μg lipid)?
Answer: 42%

Question: And the “CAT ACTIVITY” value ([3]; 10 μg lipid)?
Answer: 10,598 CPM

Question: What about the “CAT ACTIVITY” value (HeLa-S3 cells; 6 μg lipid, DMEM, 5% FBS) of the same molecule?
Answer: 78,798 CPM

Question: And the “CAT ACTIVITY” value (HeLa-S3 cells; 12 μg lipid, OPTIMEM I, 0% FBS)?
Answer: 29,400 CPM

Question: And the “DNA transfection (in words)” value (HeLa-S3 cells; HeLa-S3, presence or absence of serum)?
Answer: good activity

Question: Which “toxicity relative to DOTMA” value (some cell lines [4]) does the source give for `CC(C)CCC[C@@H](C)[C@H]1CC[C@H]2[C@@H]3CC=C4C[C@@H](OC(=O)NCCN(C)C)CC[C@]4(C)[C@H]3CC[C@]12C` [DC-Chol] here?
Answer: lower toxicity

Question: And the “transfection efficiency relative to DOTMA” value (some cell lines [5])?
Answer: more efficient transfection

Question: For `CCCCCCCCCCCCCCCC(=O)OCC(COP(=O)(O)OCCNC(=O)C(CCCNCCCN)NCCCN)OC(=O)CCCCCCCCCCCCCCC` (stereo not drawn) [DPPES, dipalmitoylphosphatidylethanolamine 5-carboxyspermylamide], which “toxicity relative to DOTMA” value (some cell lines [4]) is on record?
Answer: less toxic

Question: And the “transfection / delivery of nucleic acids” value (some cell lines [5])?
Answer: efficient transfection

Question: What about the “transfection efficiency relative to DOTMA” value (some cell lines [5]) of the same molecule?
Answer: more efficient

Question: Which “CAT ACTIVITY” value (Jurkat cells; 20 μg lipid) does the source give for `CCCCCCCC/C=C\CCCCCCCCOCC(C[N+](C)(C)CCNCCCNCCCCNCCCN)OCCCCCCCC/C=C\CCCCCCCC` (stereo not drawn) [Compound 5, 1-Propanaminium,N-{2-[[3-[[4-[(3-aminopropyl)amino]butyl]-amino]propyl]amino]ethyl}-n,n-dimethyl-2,3-bis-(9-octadecenyloxy)-, bromide] here?
Answer: 1170 CPM/150 μl

Question: And the viability at 6 h ([1]; 20 μg lipid)?
Answer: 100%

Question: What about the “DNA transfection (in words)” value [3] of the same molecule?
Answer: effective

Question: Which “transfection / delivery of nucleic acids” value (some cell lines [5]) does the source give for `CCCCCCCC/C=C\CCCCCCCCOCC(C[N+](C)(C)C)OCCCCCCCC/C=C\CCCCCCCC` (stereo not drawn) [DOTMA] here?
Answer: efficient delivery of nucleic acids to some types of cells

Question: Which “DNA transfection (in words)” value (NIH-3T3 cells) does the source give for `CCCCCCCC/C=C\CCCCCCCCOCC(C[N+](C)(C)CCN)OCCCCCCCC/C=C\CCCCCCCC` (stereo not drawn) [Compound 2, 1-Propanaminium, N-(2-amino)ethyl-N,N-dimethyl-2,3-bis(9-octadecenyloxy)-bromide] here?
Answer: good activity
